Laboratory results published in article PMC8193492, “Yeast Cell-Based Transport Assay for the Functional Characterization of Human 4F2hc-LAT1 and ‐LAT2, and LAT1 and LAT2 Substrates and Inhibitors” (Frontiers in Molecular Biosciences, 2021).
“And” between values parts separate entries of the source, which are not always exact repeats. Identical values can stand only once. Like-named read-outs stand apart in the source and are kept apart here. One block for each compound: values may come before it.

Assays:
human 4F2hc-LAT1 = molecular target: T1, human 4F2hc-LAT1 (Homo sapiens, UniProt Q01650); test: [3H]L-leucine radioligand transport assay, P. pastoris cells expressing 4F2hc-LAT1; format: cell-based
T1 construct: expressed in transfected cells; host or cells: Pichia pastoris KM71H (pPICZB vector)

human 4F2hc-LAT2 [1] = molecular target: T2, human 4F2hc-LAT2 (Homo sapiens, UniProt Q9UHI5); test: [3H]L-leucine radioligand transport assay, P. pastoris cells expressing 4F2hc-LAT2; format: cell-based; conditions: P. pastoris KM71H cells, OD600 0.75, 0.1 µM [3H]L-leucine, 10 min uptake, 25°C; read-out: IC50 of L-leucine uptake, 4F2hc-LAT2 (this work)
T2 construct: expressed in transfected cells; host or cells: Pichia pastoris KM71H (pPICZB vector)
T2 sequence (Q9UHI5 1-535): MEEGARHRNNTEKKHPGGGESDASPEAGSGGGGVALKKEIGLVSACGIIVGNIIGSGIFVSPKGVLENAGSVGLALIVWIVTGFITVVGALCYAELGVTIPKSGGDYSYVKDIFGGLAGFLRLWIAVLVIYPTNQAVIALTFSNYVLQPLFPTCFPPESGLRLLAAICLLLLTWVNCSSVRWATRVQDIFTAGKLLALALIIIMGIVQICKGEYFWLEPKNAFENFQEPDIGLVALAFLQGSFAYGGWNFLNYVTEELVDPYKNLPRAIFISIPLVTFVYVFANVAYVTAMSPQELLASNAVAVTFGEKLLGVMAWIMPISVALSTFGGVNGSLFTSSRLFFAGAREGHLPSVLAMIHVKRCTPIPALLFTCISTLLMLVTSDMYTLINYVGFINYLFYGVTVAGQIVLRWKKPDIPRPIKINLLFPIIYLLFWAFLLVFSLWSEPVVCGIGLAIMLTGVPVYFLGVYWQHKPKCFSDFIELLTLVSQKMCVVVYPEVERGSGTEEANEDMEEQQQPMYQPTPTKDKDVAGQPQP
T2 sequence (P08195 1-529 partner): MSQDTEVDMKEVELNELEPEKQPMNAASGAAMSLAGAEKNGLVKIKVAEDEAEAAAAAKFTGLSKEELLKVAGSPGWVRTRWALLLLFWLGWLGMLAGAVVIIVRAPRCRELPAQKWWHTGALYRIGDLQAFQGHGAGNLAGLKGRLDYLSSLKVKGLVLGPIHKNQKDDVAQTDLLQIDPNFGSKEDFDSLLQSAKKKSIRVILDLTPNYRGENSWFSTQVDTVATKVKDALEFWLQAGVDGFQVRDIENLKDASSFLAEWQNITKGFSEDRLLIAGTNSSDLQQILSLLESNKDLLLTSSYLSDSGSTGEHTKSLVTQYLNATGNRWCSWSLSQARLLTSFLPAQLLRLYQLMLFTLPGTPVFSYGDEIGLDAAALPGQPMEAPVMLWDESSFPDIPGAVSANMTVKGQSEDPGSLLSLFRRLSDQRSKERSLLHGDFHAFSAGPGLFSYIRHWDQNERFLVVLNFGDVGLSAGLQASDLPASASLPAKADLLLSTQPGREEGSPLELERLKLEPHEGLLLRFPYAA

human LAT2 = molecular target: T3, human LAT2 (Homo sapiens, UniProt Q9UHI5); test: [3H]L-leucine radioligand transport assay, P. pastoris cells expressing LAT2; format: cell-based; conditions: P. pastoris KM71H cells, OD600 0.75, 0.1 µM [3H]L-leucine, 10 min uptake, 25°C
T3 construct: expressed in transfected cells; host or cells: Pichia pastoris KM71H (pPICZB vector)
T3 sequence (Q9UHI5 1-535): T2 sequence (Q9UHI5 1-535)

4F2hc-LAT1 [2] = conditions: host Saos2, read-out: 4F2hc-LAT1 IC50 of L-leucine uptake, cited from earlier work
4F2hc-LAT1 [3] = test system: 4F2hc-LAT1; design: method as in Kim et al. (2008); conditions: host KB cells; ref Kim et al. (2008); read-out: 4F2hc-LAT1 IC50 of L-leucine uptake; cited from earlier work
4F2hc-LAT1 [4] = test system: 4F2hc-LAT1; design: method as in Kim et al. (2008); conditions: host C6 cells; reference cell empty, line above: ref Kim et al. (2008); read-out: 4F2hc-LAT1 IC50 of L-leucine uptake; cited from earlier work
4F2hc-LAT1 [5] = test system: 4F2hc-LAT1; design: method as in Yun et al. (2014); conditions: host YD-38; ref Yun et al. (2014); read-out: 4F2hc-LAT1 IC50 of L-leucine uptake; cited from earlier work
4F2hc-LAT1 [6] = test system: 4F2hc-LAT1; design: method as in Khunweeraphong et al. (2012); conditions: host HEK293; ref Khunweeraphong et al. (2012); read-out: 4F2hc-LAT1 IC50 of L-leucine uptake; cited from earlier work
4F2hc-LAT1 [7] = conditions: cited from earlier work; for IC50: read-out: 4F2hc-LAT1 IC50 of L-leucine uptake
human 4F2hc-LAT2 [8] = molecular target: T2, human 4F2hc-LAT2; conditions: cited from earlier work; for IC50: host S2 cells, read-out: 4F2hc-LAT2 IC50 of L-leucine uptake
human LAT1 [9] = molecular target: T4, human LAT1 (Homo sapiens, UniProt Q01650); test: cell-based
Description: (§1) Resulting cells were resuspended in transport buffer (150 mM choline chloride, 1 mM MgCl2, 1 mM CaCl2, 10 mM Tris-HEPES, pH 7.4) containing 50% (v/v) glycerol and the OD600 was adjusted to 40. Cells were stored at −18°C until further use.
(§2) For transport studies, 1 ml of thawed P. pastoris cells (OD600 40) expressing the corresponding transporter were diluted in 50 ml transport buffer and pelleted by centrifugation (3,000 × g, 15 min, room temperature). The pellet was then washed by resuspending it in 50 mL transport buffer and by repeating the washing procedure (centrifugation and resuspension) two times. Finally, the cell pellet was resuspended in 2 ml of transport buffer and incubated for 20 min at 30°C under agitation (300 rpm, Multitron, Infors HT, Bottmingen, Switzerland). […] All transport experiments were performed in a reaction volume of 100 µL. […] The competitors were prepared in 100% (v/v) DMSO. The final DMSO concentration was always 0.5% (v/v), independently of which final substrate or inhibitor concentration was used in the assay. Control samples contained the same concentration of DMSO. Final OD600 values in uptake experiments were 0.75 for all cells (4F2hc-LAT1, LAT1, 4F2hc-LAT2 or LAT2 expressing cells) and untransformed P. pastoris KM71H cells. All transport reactions were done in 2 ml reaction tubes (Eppendorf, Hamburg, Germany) at 25°C under agitation (1,000 rpm, Thermomixer compact, Eppendorf, Hamburg, Germany). Uptakes were terminated after 10 min (uptake time) for all cells by adding 600 µL of pre-chilled transport buffer. Cells were rapidly separated from the buffer by transferring the stopped reactions on a 96-well 0.66 mm glass fiber filter plate (Corning FiltrEX, Corning, NY, United States) and vacuum filtration. Each well was washed with 2 ml of ice-cold transport buffer to remove free radioligand. The plate was then dried overnight at 37°C, and the backside was sealed with a BackSeal (PerkinElmer, Waltham, MA, United States). The trapped radioligand was released by addition of 200 µL scintillation cocktail (MicroScint 40, PerkinElmer, Waltham, MA, United States) to each well, and the plate topside was sealed with Topseal^TM-A Plus (PerkinElmer, Waltham, MA, United States), followed by incubation for 30 min at 25°C and 1,000 rpm (Thermomixer compact, Eppendorf, Hamburg, Germany). Counts were measured in each well for 2 min with a scintillation counter (TopCount NXT, PerkinElmer, Waltham, MA, United States).
(§3) Experiments were performed at least in triplicate. For data analysis, the signal of the untransformed P. pastoris cells was subtracted from the transporter signal to obtain the net transport signal. Data from three independent experiments were taken. […] Every experimental data point was then individually normalized using the corresponding upper plateau values (i.e., the fitted upper plateau value that corresponds to 100%). Single, normalized data points from the three independent experiments were averaged and a sigmoidal model curve was fitted to the data in order to obtain the IC50 values. Prism6 (GraphPad Software) was used for data analysis.

human LAT1 [10] = molecular target: T4, human LAT1; conditions: Pichia cells expressing the light subunits alone
Description: as §1, §2, §3

4F2hc-LAT1 [11] = test system: 4F2hc-LAT1; design: method as in Häfliger et al. (2018); conditions: host HT-29; ref Häfliger et al. (2018); read-out: 4F2hc-LAT1 IC50 of L-leucine uptake; cited from earlier work
4F2hc-LAT1 [12] = test system: 4F2hc-LAT1; design: method as in Häfliger et al. (2018); conditions: host SW1736; ref Häfliger et al. (2018); read-out: 4F2hc-LAT1 IC50 of L-leucine uptake; cited from earlier work
4F2hc-LAT1 [13] = test system: 4F2hc-LAT1; design: method as in Häfliger et al. (2018); conditions: host 8505c; ref Häfliger et al. (2018); read-out: 4F2hc-LAT1 IC50 of L-leucine uptake; cited from earlier work
4F2hc-LAT1 [14] = test system: 4F2hc-LAT1; design: method as in Yothaisong et al. (2017); conditions: host KKU-055; ref Yothaisong et al. (2017); read-out: 4F2hc-LAT1 IC50 of L-leucine uptake; cited from earlier work
4F2hc-LAT1 [15] = test system: 4F2hc-LAT1; design: method as in Yothaisong et al. (2017); conditions: host KKU-213; ref Yothaisong et al. (2017); read-out: 4F2hc-LAT1 IC50 of L-leucine uptake; cited from earlier work
4F2hc-LAT1 [16] = test system: 4F2hc-LAT1; design: method as in Yothaisong et al. (2017); conditions: host KKU-100; ref Yothaisong et al. (2017); read-out: 4F2hc-LAT1 IC50 of L-leucine uptake; cited from earlier work
4F2hc-LAT1 [17] = test system: 4F2hc-LAT1; design: method as in Kantipudi et al. (2020); conditions: host Pichia pastoris, ref Kantipudi et al. (2020), cited from earlier work
4F2hc-LAT1 [18] = conditions: host Oocytes, cited from earlier work
4F2hc-LAT2 [19] = test system: 4F2hc-LAT2; design: method as in Kantipudi et al. (2020); conditions: host Pichia pastoris, ref Kantipudi et al. (2020), cited from earlier work
4F2hc-LAT2 [20] = test system: 4F2hc-LAT2; design: method as in Pineda et al. (1999); conditions: host Oocytes; ref Pineda et al. (1999); cited from earlier work
[21] = P. pastoris KM71H cells, OD600 0.75, 0.1 µM [3H]L-leucine, 10 min uptake, 25°C, read-out: IC50 of L-leucine uptake, 4F2hc-LAT1 (this work)

T4 sequence (Q01650 whole entry): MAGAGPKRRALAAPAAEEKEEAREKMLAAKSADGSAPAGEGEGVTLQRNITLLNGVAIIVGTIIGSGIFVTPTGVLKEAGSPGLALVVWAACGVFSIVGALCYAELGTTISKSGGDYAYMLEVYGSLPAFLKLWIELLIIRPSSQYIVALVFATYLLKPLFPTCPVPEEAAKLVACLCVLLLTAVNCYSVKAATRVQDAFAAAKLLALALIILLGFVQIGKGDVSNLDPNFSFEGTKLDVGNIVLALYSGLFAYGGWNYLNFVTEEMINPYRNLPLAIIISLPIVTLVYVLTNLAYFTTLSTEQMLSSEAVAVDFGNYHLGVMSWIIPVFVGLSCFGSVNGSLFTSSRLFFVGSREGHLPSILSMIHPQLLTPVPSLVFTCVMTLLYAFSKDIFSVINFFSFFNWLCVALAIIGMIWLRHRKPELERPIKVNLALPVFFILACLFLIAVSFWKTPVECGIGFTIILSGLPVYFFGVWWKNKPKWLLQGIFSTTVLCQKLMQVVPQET
T1 sequence (Q01650 whole entry, one chain of several): as the sequence (Q01650 whole entry) above

Structure (SMILES): NC1(C(=O)O)CC2CCC1C2 (stereo not shown) [BCH, 2-aminobicyclo-(2,2,1)-heptane-2-carboxylic acid]
IC50 (human 4F2hc-LAT1; [21]): 72 µM
specificity for 4F2hc-LAT1 compared with 4F2hc-LAT2 (from IC50s) (human 4F2hc-LAT1; P. pastoris cell assay): about 2.7 fold
IC50 (human 4F2hc-LAT2 [1]): 195 µM
IC50 (human LAT2): 184 µM
IC50 (4F2hc-LAT1 [2]; ref Choi et al. (2017)): 72.2 ± 0.92 µM
IC50 (4F2hc-LAT1 [2]; ref Kim et al. (2008)): 78.8 ± 3.5 µM
IC50 (4F2hc-LAT1 [3]): 75.3 ± 6.7 µM
IC50 (4F2hc-LAT1 [4]): 73.1 ± 4.5 µM
IC50 (4F2hc-LAT1 [5]): 92.6 ± 8.9 µM
IC50 (4F2hc-LAT1 [6]): 78.3 ± 12.1 µM
IC50 (4F2hc-LAT1 [7]; host S2 cells, ref Morimoto et al. (2008)): 132 ± 27.8 µM
IC50 (human 4F2hc-LAT2 [8]; ref Morimoto et al. (2008)): 315 ± 68.6 µM
IC50 (human LAT1 [9]): 78 µM

IC50 (human 4F2hc-LAT1; [21]): 0.197 µM
IC50(Pichia-4F2hc-LAT2)/IC50(Pichia-4F2hc-LAT1) ratio (human 4F2hc-LAT1; P. pastoris cell assay): about 7.6
specificity for 4F2hc-LAT1 compared with 4F2hc-LAT2 (from IC50s) (human 4F2hc-LAT1; P. pastoris cell assay): about 7.6 fold
IC50 (human 4F2hc-LAT2 [1]): 1.5 µM
IC50 (human LAT2): 1.7 µM
IC50(Pichia-LAT2)/IC50(Pichia-LAT1) ratio (human LAT1 [10]): about 4.9
IC50 (human LAT1 [9]): 0.346 µM
Structure (SMILES): Nc1cc(COc2c(Cl)cc(C[C@H](N)C(=O)O)cc2Cl)c2oc(-c3ccccc3)nc2c1 [JPH203, (S)-2-amino-3-(4-((5-amino-2-phenylbenzo [d]oxazol-7-yl)-methoxy)-3,5-dichlorophenyl)-propanoic acid]
IC50 (4F2hc-LAT1 [2]; ref Choi et al. (2017)): 1.31 ± 0.27 µM
IC50 (4F2hc-LAT1 [5]): 0.79 ± 0.06 µM
IC50(S2-LAT2)/IC50(S2-LAT1) ratio (4F2hc-LAT1 [7]; S2 cells, ref Oda et al. (2010)): > 500
IC50 (4F2hc-LAT1 [7]; host S2 cells, ref Endou et al. (2008)): 0.19 µM and 0.2 µM
IC50 (4F2hc-LAT1 [7]; host S2 cells, ref Oda et al. (2010)): 0.14 µM
IC50 (4F2hc-LAT1 [11]): 0.134 µM
IC50 (4F2hc-LAT1 [12]): 0.177 µM
IC50 (4F2hc-LAT1 [13]): 0.12 µM
IC50 (4F2hc-LAT1 [14]): 0.2 ± 0.03 µM
IC50 (4F2hc-LAT1 [15]): 0.12 ± 0.02 µM
IC50 (4F2hc-LAT1 [16]): 0.25 ± 0.04 µM
inhibition of human 4F2hc-LAT2 (human 4F2hc-LAT2 [8]; S2 cell-based assay, at 10 µM, ref Endou et al. (2008)): almost no inhibition
IC50 (human 4F2hc-LAT2 [8]; ref Oda et al. (2010)): > 10 µM

IC50 (human 4F2hc-LAT1; [21]): 22 µM
IC50 (human 4F2hc-LAT2 [1]): 210 µM
IC50 (human LAT2): 39 µM
IC50 (human LAT1 [9]): 9 µM
Structure (SMILES): CC(C)C[C@H](N)C(=O)O [L-leucine]
IC50 (4F2hc-LAT1 [17]; read-out: 4F2hc-LAT1 IC50 of L-leucine uptake): 38 µM
Km (4F2hc-LAT1 [17]; read-out: 4F2hc-LAT1 KM of L-leucine uptake): 25 ± 3 µM
Km (4F2hc-LAT1 [18]; ref Friesema et al. (2001)): 46 µM
Km (4F2hc-LAT1 [18]; ref Kanai et al. (1998)): 18.1 ± 3.4 µM
Km (4F2hc-LAT1 [18]; ref Yanagida et al. (2001)): 19.7 ± 4.1 µM
IC50 (4F2hc-LAT2 [19]; read-out: 4F2hc-LAT2 IC50 of L-leucine uptake): 221 µM
Km (4F2hc-LAT2 [19]; read-out: 4F2hc-LAT2 KM of L-leucine uptake): 249 ± 22 µM
Km (4F2hc-LAT2 [20]): 220 µM

Structure (SMILES): N[C@@H](Cc1cc(I)c(Oc2ccc(O)c(I)c2)c(I)c1)C(=O)O [T3, triiodothyronine]
Km (4F2hc-LAT1 [18]; ref Friesema et al. (2001)): 0.8 µM
Km (4F2hc-LAT1 [18]; ref Ritchie et al. (1999)): 1.8 µM

Structure (SMILES): NC(Cc1cc(I)c(Oc2cc(I)c(O)c(I)c2)c(I)c1)C(=O)O (stereo not shown) [T4, thyroxine]
IC50 (human 4F2hc-LAT1): 10 µM
specificity for 4F2hc-LAT1 compared with 4F2hc-LAT2 (from IC50s) (human 4F2hc-LAT1; P. pastoris cell assay): about four-times higher
IC50 (human 4F2hc-LAT2 [1]): 42 µM
IC50 (human LAT2): 25 µM
Km (4F2hc-LAT1 [18]; ref Friesema et al. (2001)): 7.9 µM
Km (4F2hc-LAT1 [18]; ref Ritchie et al. (1999)): 6.3 µM
Ki (4F2hc-LAT1 [7]; host S2 cells, ref Morimoto et al. (2008), read-out: 4F2hc-LAT1 Ki of L-leucine uptake): 115 ± 2 µM
IC50 (human LAT1 [9]): 8 µM
